Test results as given in ChEMBL document CHEMBL1201862, “PubChem BioAssay data set” (2004).
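Test compounds were applied to cells in 96-well plates for 48 hours at 5 doses. At the GI50, growth is halved.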 Calls of active or inactive are those of the source. Cut-off read from the data, not from the text of the source: active = GI50 up to about 1.1 µM and inactive = higher.

Tests used:
Assay in all cases: NCI-60 cell line screen, 48 h
[1] = tested on: 786-0
[2] = tested on: A498
[3] = tested on: ACHN
[4] = tested on: BT-549
[5] = tested on: CAKI-1
[6] = tested on: CCRF-CEM
[7] = tested on: COLO 205
[8] = tested on: DU-145
[9] = tested on: EKVX
[10] = tested on: HCC 2998
[11] = tested on: HCT-116
[12] = tested on: HCT-15
[13] = tested on: HL-60
[14] = tested on: HOP-62
[15] = tested on: HOP-92
[16] = tested on: HT-29
[17] = tested on: Hs-578T
[18] = tested on: IGROV-1
[19] = tested on: K562
[20] = tested on: KM12
[21] = tested on: LOX IMVI
[22] = tested on: M14
[23] = tested on: MCF7
[24] = tested on: MDA-MB-231
[25] = tested on: MDA-MB-435
[26] = tested on: MDA-N
[27] = tested on: MOLT-4
[28] = tested on: Malme-3M
[29] = tested on: NCI-H226
[30] = tested on: NCI-H23
[31] = tested on: NCI-H460
[32] = tested on: NCI-H522
[33] = tested on: NCI/ADR-RES
[34] = tested on: OVCAR-3
[35] = tested on: OVCAR-4
[36] = tested on: OVCAR-5
[37] = tested on: OVCAR-8
[38] = tested on: PC-3
[39] = tested on: RPMI-8226
[40] = tested on: RXF 393
[41] = tested on: SF-268
[42] = tested on: SF-295
[43] = tested on: SF-539
[44] = tested on: SK-MEL-28
[45] = tested on: SK-MEL-2
[46] = tested on: SK-MEL-5
[47] = tested on: SK-OV-3
[48] = tested on: SN12C
[49] = tested on: SNB-19
[50] = tested on: SNB-75
[51] = tested on: SR
[52] = tested on: SW-620
[53] = tested on: T47D
[54] = tested on: TK-10
[55] = tested on: U-251
[56] = tested on: UACC-257
[57] = tested on: UACC-62
[58] = tested on: UO-31
[59] = tested on: A549

Measured: GI50

C#CC1NC(=O)C1N(CC)CC (configuration not stated)
> 100 µM: [12]
inactive: [1] > 100 µM | [2] > 100 µM | [3] > 100 µM | [4] > 100 µM | [5] 86.5 µM | [6] > 100 µM | [7] > 100 µM | [8] > 100 µM | [9] > 100 µM | [10] > 100 µM | [11] > 100 µM | [13] > 100 µM | [14] > 100 µM | [15] > 100 µM | [16] > 100 µM | [17] > 100 µM | [18] > 100 µM | [19] > 100 µM | [20] > 100 µM | [21] > 100 µM | [22] > 100 µM | [23] > 100 µM | [24] > 100 µM | [25] > 100 µM | [26] > 100 µM | [27] > 100 µM | [28] > 100 µM | [29] > 100 µM | [30] > 100 µM | [31] > 100 µM | [32] > 100 µM | [33] > 100 µM | [34] > 100 µM | [35] > 100 µM | [36] > 100 µM | [37] > 100 µM | [38] > 100 µM | [39] > 100 µM | [40] > 100 µM | [41] > 100 µM | [42] > 100 µM | [43] > 100 µM | [44] > 100 µM | [45] > 100 µM | [46] > 100 µM | [47] > 100 µM | [48] > 100 µM | [49] > 100 µM | [50] 14.6 µM | [51] > 100 µM | [52] > 100 µM | [53] > 100 µM | [54] > 100 µM | [55] > 100 µM | [56] > 100 µM | [57] > 100 µM | [58] > 100 µM

CCOP(=O)(OCC)/C(C#N)=C/c1cccn1N(C)C
inactive: [1] > 100 µM | [2] > 100 µM | [59] > 100 µM | [3] > 100 µM | [4] 62.2 µM | [5] > 100 µM | [6] > 100 µM | [7] > 100 µM | [9] > 100 µM | [10] > 100 µM | [11] 3.37 µM | [13] > 100 µM | [14] > 100 µM | [15] > 100 µM | [16] > 100 µM | [17] > 100 µM | [18] > 100 µM | [19] > 100 µM | [20] > 100 µM | [21] > 100 µM | [22] > 100 µM | [23] > 100 µM | [24] > 100 µM | [25] > 100 µM | [27] > 100 µM | [28] > 100 µM | [29] > 100 µM | [30] > 100 µM | [31] > 100 µM | [32] > 100 µM | [33] > 100 µM | [34] > 100 µM | [35] > 100 µM | [36] > 100 µM | [37] > 100 µM | [38] > 100 µM | [39] > 100 µM | [40] > 100 µM | [41] > 100 µM | [42] > 100 µM | [43] > 100 µM | [44] > 100 µM | [45] > 100 µM | [46] 51.6 µM | [47] > 100 µM | [48] > 100 µM | [49] > 100 µM | [50] > 100 µM | [51] > 100 µM | [52] > 100 µM | [53] 47.6 µM | [54] > 100 µM | [55] > 100 µM | [56] > 100 µM | [57] > 100 µM | [58] > 100 µM
> 100 µM: [12]
active: [8] 0.144 µM | [26] 0.0356 µM
